Molecules are shown by their SMILES.

The nature of this data set: gradient 5% acetonitrile 3 min, to 50% in 2 min, to 85% in 15 min, held 3 min, 100 µL/min. The note with it: column: Zorbax Extend-C18 2.1 x 50 mm; eluents: water / acetonitrile, 0.1% formic acid. Summed up: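 Pure standards were analyzed in mixtures of ~100 molecules using HPLC coupled to a quadrupole time-of-flight mass spectrometer, in both positive and negative ionization mode. Separation used a Zorbax Extend-C18 column (2.1 × 50 mm, 1.8 μm) at 100 μL/min, with water and acetonitrile each containing 0.1% formic acid. Dead and dwell volumes were 40 μL and 900 μL, and data were collected over 3 months. Retention time was read from computationally picked adduct peaks, each inspected manually.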
The compound `Cc1nnc(NC(=O)CN2CCc3nc(NC(=O)c4cnccn4)sc3C2)s1` came in with an RP-LC retention time of 546 s.
In turn, `CCc1nnc([C@@H]2CC(F)(F)CN2S(=O)(=O)c2ccc(C)cc2)o1` had an RP-LC retention time of 696 s.
As for `O=C(NCCC1CCN(S(=O)(=O)c2ccc(F)cc2)CC1)NC1CCCCC1`, the RP-LC retention time is 890 s.
The compound `CC(Oc1ccccc1)C(=O)N1CCc2c(c(C(=O)NCc3ccc4c(c3)OCO4)nn2C)C1` (configuration not stated) yielded an RP-LC retention time of 818 s.
As to `CSc1ccc(CNC(=O)C2CCCN(c3ccc(N4CCOCC4)nn3)C2)cc1` (configuration not stated), the RP-LC retention time is 653 s.
The compound `CC(C)c1ccc(-c2noc(N3CCC(C(=O)NCCN4CCCC4)CC3)n2)cc1` registered an RP-LC retention time of 730 s.
Consider `COc1ccc(NC(=O)Cn2ccnc2-c2ccnc(N3CCCC3)c2)cc1OC`, for which the RP-LC retention time stood at 573 s.
`Cc1cc(C)c(-c2noc(C)n2)c(NC(=O)c2ccc(Cl)cc2)n1`: the RP-LC retention time came out at 790 s.
Next, `O=C(CSc1nnc2ccccn12)NCc1ccco1`: 576 s; `COc1cccc(NS(=O)(=O)c2cc3c(s2)CCN(C(=O)C2CCC2)C3)c1`: 851 s.
In the case of `O=C1CCC2(C(=O)N3CCN(c4ccccn4)CC3)CCC=C2N1C1CCCC1` (configuration not stated) it was 579 s.
`CCc1cc(C(=O)N2CCN(C3CCN(C)CC3)CC2)nc2cc(-c3ccccn3)nn12` came in with an RP-LC retention time of 562 s.
`O=C(Nc1cccc2cccnc12)c1ccc(N2C(=O)[C@@H]3[C@H](C2=O)[C@@H]2C=C[C@H]3C2)cc1` displayed an RP-LC retention time of 941 s.
As to `CCN1CCN(CCNC(=O)Cn2c3ccccc3c3cnn(C)c(=O)c32)CC1`, the RP-LC retention time came out at 577 s.
`Cc1cc(C)cc(N2CCC(NC(=O)c3ccc(C)s3)C2=O)c1` (configuration not stated): the RP-LC retention time is 904 s.
`Cc1ccc(-c2noc(Cn3ccn(-c4c(C)cccc4C)c(=O)c3=O)n2)cc1` gave an RP-LC retention time of 925 s.
In turn, `CCSc1nnc(-c2nn(C)c3c2CN(S(=O)(=O)c2ccccc2Cl)CC3)n1CC` displayed an RP-LC retention time of 948 s.
As to `Cc1ccc(NC(=O)Cn2nc3n(c2=O)CCCCC3)cc1F`, the RP-LC retention time was 734 s.
Turning to `COc1cc(-c2nnc(/C=C/c3ccccc3)o2)cc(OC)c1OC`, the RP-LC retention time stood at 904 s.
`O=C(CCC1CCCN(c2cc(NC3CC3)ncn2)C1)N1CCCN(c2ncccn2)CC1` (configuration not stated): the RP-LC retention time worked out at 618 s.
Next, `CS(=O)(=O)Nc1ccc([N+](=O)[O-])cc1Oc1ccccc1`: 967 s; `CCC(=O)N1CCCN(C2=NS(=O)(=O)C(c3ccc(Cl)cc3)=C2C)CC1`: 661 s; `O=C(Nc1ccc2c(c1)OCCO2)N1CCc2nc(-c3ccc(F)cc3)ncc2C1`: 898 s.
As for `COc1ccc(Cl)cc1NC(=O)N1CCC2(CC1)N=C(c1ccccc1)C(=O)N2`, the RP-LC retention time came out at 909 s.
In turn, `Cc1nc(N2CCN(c3ccccn3)CC2)nc2c1C(=O)CC(C)(C)C2` showed an RP-LC retention time of 677 s.
`COc1ccc(NC(=O)C2CC(=O)N(c3n[nH]c4cccc(F)c34)C2)cc1` (configuration not stated) came in with an RP-LC retention time of 717 s.
`Cc1ccc(NC(=O)C2CCN(S(=O)(=O)c3c(C)[nH]c(C)c3C(=O)N3CCCC3)CC2)cc1F` yielded an RP-LC retention time of 753 s.
`COc1ccc(NS(=O)(=O)c2cc3n(c2)CCN(CC(C)C)C3=O)cc1Cl` yielded an RP-LC retention time of 828 s.
In the case of `O=S(=O)(Nc1ccc(-c2noc(-c3ccc(Cl)cc3)n2)cc1)c1cccs1`, the RP-LC retention time was 1180 s.
The compound `CCn1c(=O)c(N2CCCC(C(=O)N3CCN(c4ccc(F)cc4)CC3)C2)nc2ccccc21` (configuration not stated) returned an RP-LC retention time of 1090 s.
In the case of `COC(=O)CNC(=O)N1CCN(c2nc3ccccc3n(Cc3ccccc3)c2=O)CC1` it was 779 s; in that of `CCc1ccc(NC(=O)C2(C)Oc3cccnc3N(CC)C2=O)cc1` (configuration not stated), 982 s; in that of `CCN1C(=O)c2ccccc2Oc2ccc(C(=O)NC3CCCCC3)cc21`, 967 s.
`CC(C)NC(=O)CN1CCN(c2cc(C(=O)O)c3cc(NC(=O)c4ccccc4F)ccc3n2)CC1` had an RP-LC retention time of 594 s.
With `COC1CCC12CCN(Cc1ccc(C#N)cc1)CC2` (configuration not stated), the RP-LC retention time amounted to 597 s.
For the compound `O=C(COc1ccc(F)cc1)N1CCC2(CC1)NC(=O)N(Cc1ccc(Cl)cc1)C2=O`, the RP-LC retention time came to 810 s.
`Clc1cccc(Nc2nnc(-c3ccccc3)c3ccccc23)c1` yielded an RP-LC retention time of 790 s.
`CC(C)CNC(=O)c1ccc2c(c1)CCCN2S(=O)(=O)c1ccccc1` came in with an RP-LC retention time of 936 s.
In turn, `OC(CN1CCN(c2ncccn2)CC1)c1ccc(Br)cc1` (configuration not stated) yielded an RP-LC retention time of 607 s.
In the case of `CCN1CCN(C(=O)Cc2ccc(Nc3ncc(F)c(Nc4ccc(C(=O)Nc5ccccc5Cl)cc4)n3)cc2)CC1`, the RP-LC retention time is 684 s.
As to `CSc1cccc(NC(=O)N2CCC(C)(C(=O)NCc3ccccc3)CC2)c1`, the RP-LC retention time worked out at 852 s.
Next, `COc1ccccc1NS(=O)(=O)c1c(C)nn(-c2ccc(-c3ccc(C)cc3)nn2)c1C`: 1150 s; `O=S(=O)(c1ccc(Cl)cc1)N1CCc2nc(-c3ccccc3)ncc2C1`: 1080 s.
Turning to `O=C(NCCCN1CCOCC1)c1nc2ccccn2c1-c1ccc(F)cc1`, the RP-LC retention time came out at 602 s.
Compound `COCCOCc1nc(C2CCN(C(=O)NC3CCCCC3)CC2)no1` displayed an RP-LC retention time of 709 s.
In the case of `Cc1noc(C)c1CC(=O)N1CCCCCCNC(=O)[C@@H]2CCCC[C@@H]21` it was 739 s.
In turn, `CCn1c(=O)c2ccccc2n(Cc2nc(-c3cccc(Cl)c3)no2)c1=O` displayed an RP-LC retention time of 1090 s.
`CC(=O)c1ccc(NC(=O)Cn2nc3c4cc(-c5ccc(C(C)C)cc5)nn4ccn3c2=O)cc1`: the RP-LC retention time turned out to be 1020 s.
The compound `Cc1ccc(-c2nc(N)n(S(=O)(=O)c3ccc(C)cc3)n2)cc1` displayed an RP-LC retention time of 969 s.
`CN1CCN(C(=O)CN2C(=O)C3CCCCN3c3ccc(S(=O)(=O)N4CCCC4)cc32)CC1` (configuration not stated) returned an RP-LC retention time of 631 s.
With `CC(C(=O)NCCc1c[nH]c2ccccc12)C1CCN(S(=O)(=O)c2cccs2)CC1` (configuration not stated), the RP-LC retention time is 841 s.
For the compound `O=C(Nc1ccccc1Cl)C(=O)c1cn(CC(=O)N2CCCC2)c2ccccc12`, the RP-LC retention time was determined as 1070 s.
Consider `Cn1c(C(=O)N2CCCC(C(=O)NCCc3ccc(S(N)(=O)=O)cc3)C2)cc2sccc21` (configuration not stated), for which the RP-LC retention time was determined as 693 s.
In the case of `O=C(NCCOc1cccc(C(F)(F)F)c1)c1ccc([N+](=O)[O-])cc1` it was 913 s.
In the case of `COc1cccc(CNc2ccc3[nH]c(=O)[nH]c3c2)c1OC` it was 593 s.
On to `Cc1ccc(S(=O)(=O)Nc2cccc(-c3cn4cccc(C)c4n3)c2)cc1`, for which the RP-LC retention time is 674 s.
`C=CCN1CC(c2nc3ccccc3n2CC(O)COc2cc(C)ccc2C)CC1=O` (configuration not stated) showed an RP-LC retention time of 664 s.
`CCCCCNC(=O)c1sccc1S(=O)(=O)N(C)c1ccc(OCC)cc1` yielded an RP-LC retention time of 1190 s.
In the case of `COc1ccc(N(Cc2nc3nc(C)c(Cl)c(C)n3n2)C(=O)c2ccco2)cc1` it was 824 s; in that of `CC(=O)c1cccc(NC(=O)Cc2csc3nc(-c4ccccc4)cn23)c1`, 729 s; in that of `COc1ccc(OC)c(S(=O)(=O)N2CCc3nc(-c4ccc(F)cc4)ncc3C2)c1`, 1050 s.
Compound `COc1ccc(N2CCN(c3ncc4c(n3)CCN(Cc3ccccc3Cl)C4)CC2)cc1` yielded an RP-LC retention time of 667 s.
For `Cc1sc(-c2nnc(C(=O)N3CCCC3)o2)cc1S(=O)(=O)N1CCN(C)CC1`, the RP-LC retention time came to 607 s.
In the case of `Cc1cccc(C)c1NS(=O)(=O)c1cc2c3c(c1)CCC(=O)N3CCC2` it was 848 s; in that of `CC(C)c1noc(-c2cc(=O)n(CC(=O)NCc3ccc(F)cc3)c3ccccc23)n1`, 951 s.
`COCCNC(=O)N1CCN(c2cc(-c3cccc(OC)c3)ncn2)CC1` yielded an RP-LC retention time of 593 s.
In the case of `Cc1ccc(C(=O)N2CCc3nc(-c4ccc(F)cc4)ncc3C2)cc1C` it was 901 s; in that of `CCc1ccc(NC(=O)Cn2nc3cc(C)nc(Nc4ccc(F)c(C)c4)n3c2=O)cc1`, 1160 s; in that of `Cc1cc(C)c(NC(=O)C2CCCN2S(=O)(=O)c2cc3c(cc2C)NC(=O)CO3)c(C)c1` (configuration not stated), 799 s.
With `COc1ccc(-c2noc(CN3N=NC4C(=O)N(c5cccc(F)c5)C(=O)C43)n2)c(OC)c1` (configuration not stated), the RP-LC retention time was 610 s.
In the case of `O=C(Nc1ccc2c(c1)OCO2)C1CCN(c2cnc3nccnc3c2)CC1` it was 690 s; in that of `CC(C)(C)C(=O)Nc1cnc(-c2ccc(F)cc2)nc1`, 960 s; in that of `COc1ccc(-c2nnc(-c3ccccc3Cl)o2)cc1S(=O)(=O)N1CCCC1`, 969 s.
As for `CCOC(=O)c1c(C)oc2nc(C)nc(Nc3ccc(OCC)cc3)c12`, the RP-LC retention time was determined as 1360 s.
Consider `CCn1ccc(C(=O)N2C[C@@H]3CCCN4CCC[C@@H]([C@H]34)[C@H]2CCCC(=O)N2CCOCC2)n1`, for which the RP-LC retention time is 580 s.
The compound `COc1cccc2sc(N3CCCCC3)nc12` registered an RP-LC retention time of 821 s.
`COc1ccc(-c2nnc(COc3ccc(NC(=O)C(NC(=O)c4ccco4)C(C)C)cc3)o2)cc1` (configuration not stated) registered an RP-LC retention time of 854 s.
